Reference: patent US6716858B1, “Methods for inhibiting diabetic complications” (Kansas University Medical Center, priority 1995, dated 2004)
Where two headings read alike, the source gives them in different places.

Key:
[1] = Drug and metabolite levels in plasma and urine, STZ diabetic rat study; format: in vivo; details: for concentration at 28 weeks / concentration at 21 week: rat, plasma, oral; for concentration at 28 weeks: diabetic animals; for concentration at 21 week: week 21, 4 animals, read-out: Pyridoxamine in plasma
Method: Animal studies. Diabetes was induced by a single tail vein injection of 45 mg/kg of STZ in 0.1 M sodium citrate buffer, pH 4.5. Control animals were sham injected with buffer only. Diabetes was confirmed by measuring blood glucose levels at 2 and 3 days after the STZ-injection. Animals with plasma glucose higher than 16 mM were classified as diabetic. The diabetic rats were divided randomly into an untreated diabetic group (n=12) and two diabetic treatment groups, receiving either PM (n=13) or AG (n=12) at 1 g/L in drinking water. Two non-diabetic control groups were included, one receiving no treatment (n=13), the other receiving PM(HCl)2 at 2 g/L in drinking water (n=12); the higher dose of PM in the PM-treated control group was designed to compensate, in part, for the lower water intake of non-diabetic, compared to diabetic animals. All animals were housed individually with a light dark cycle of 12 hours each, and had free access to food and water. To maintain body weight and to limit hyperglycemia, diabetic animals received 3 IU of ultralente insulin (Humulin U, Eli Lilly) three times per week; this was increased to 5 IU after week 15 to adjust for the increase in body weight.
Measurement of drug levels in plasma and urine. PM and AG concentrations in plasma were measured by reverse phase high performance liquid chromatography (RP-HPLC). PM and its B6 vitamers were assayed as described by Sampson and O'Connor (Nutrition Res. 9:259-272 (1989)) and Sakurai et al. (J. Nutr. Sci. Vitaminol. 37:341-348 (1991)), using 293/393 nm excitation and emission wavelengths. AG was quantified at 380 nm as the 4-nitrobenzaldehyde conjugate (Beaven et al. 1969. J. Pharmacol. Exp. Therapeutics 165:14-22).

[2] = Metabolic conversions and bioavailability of pyridoxamine, plasma B6 vitamers by HPLC; format: in vivo, rat; details: 25 mg/kg/day pyridoxamine in drinking water, after 48 hours; n=4
Method: In addition to the glycated albumin studies, we carried out an investigation of the bioavailability of pyridoxamine when introduced through drinking water, and its possible redistribution into the vitamin B6 pool. Determination of the common B6 vitamers in plasma was carried out by HPLC methods as described below. Rats (n=4) were kept in standard cages as in the other experiments and were given pyridoxamine at 25 mg/kg/day for 48 hours, following which blood samples were withdrawn intra-cardially for serum analysis of the B6 vitamers. The concentrations were compared to endogenous B6 vitamer levels of control rats.
The procedures of Sampson and O° Connor (Nutrition Res. 9:259-272 (1989)) and Sharma and Dakshinamurti (Sampson and O° Connor J Nutr 119:1940-8, (1989) Sharma and Dakshinamurti, J Chromatogr 578:45-51, (1992)) were followed, using a Shimadzu HPLC with RF-551 fluorescence monitor. Excitation was at 328 nm and emission was followed at 393 nm. An Ultremex C18 guard column (30×4.6 mm, 5 micron particle size) (Phenomenex) preceded an Ultremex C18 ion-pair column (octadecylsilane, 150×4.6 mm, 3 micron particle size) (Phenomenex). Solvent A contained 0.033 M phosphoric acid and 0.008 M 1-octanesulfonic acid, adjusted to pH 2.2 with 6 N KOH. Solvent B contained 0.033 M phsophoric acid and 10% (v/v) 2-propanol, adjusted to pH 7.5 with 6 N KOH. […]

[3] = test system: AGE formation during uninterrupted glycation of human methemoglobin (Hb) by ribose; assay: Uninterrupted ribose glycation assay, Hb; format: biochemical; details: 0.05 M ribose, 3 weeks
Method: ELISA detection of AGE products. The general method of Engvall (1981, Methods Enzymol. 70:419-439) was used to perform the ELISA. Typically, glycated protein samples were diluted to approximately 1.5 ug/ml in 0.1 M sodium carbonate buffer of pH 9.5 to 9.7. The protein was coated overnight at room temperature onto 96-well polystyrene plates by pippetting 200 ul of the protein solution in each well (0.3 ug/well). After coating, the protein was washed from the wells with a saline solution containing 0.05% Tween-20. The wells were then blocked with 200 ul of 1% casein in carbonate buffer for 2 h at 37° C. followed by washing. […] In order to minimize background readings, antibodies R479 used to detect glycated RNase were raised against glycated BSA, and antibodies R618 used to detect glycated BSA and glycated Hb were raised against glycated RNase. […] The p-nitrophenylphosphate substrate solution was then added (200 ul/well) to the plates, with the absorbance of the released p-nitrophenolate being monitored at 410 nm with a Dynatech MR 4000 microplate reader.
Uninterrupted ribose glycation assays Bovine serum albumin, ribonuclease A, and human hemoglobin were incubated with ribose at 37° C. in 0.4 M sodium phosphate buffer of pH 7.5 containing 0.02% sodium azide. […] Aliquots were taken and immediately frozen until analyzed by ELISA at the conclusion of the reaction. […]

concentration at 28 weeks ([1]; 1 g/L in drinking water)	urinary PM ([1]; 23 weeks, PM intake 801±22 μmol/day)	plasma PM concentration ([1]; non-diabetic animals, PM(HCl)2 2 g/L in drinking water, from first week)	concentration at 21 week ([1]; 1 g/L in drinking water, Diabetic + PM (1 g/L))	concentration at 21 week ([1]; 2 g/L in drinking water, Control + PM (2 g/L))	elevation of plasma pyridoxamine, steady state to endogenous level [2]	Structure (SMILES)	inhibition of overall kinetics of AGE formation from ribose [3]
87 ± 10 µM						N=C(N)NN [aminoguanidine, reference compound]	
106 ± 17 µM	824 ± 44 µmol/day	~6 µM	76 ± 18 µM	6.3 ± 2.1 µM	approximately 300 fold	Cc1ncc(CO)c(CN)c1O [pyridoxamine]	showed the greatest inhibition at concentrations of 3 mM and above
